Among the data in PubChem BioAssay AID1845205 (Molecular Pharmacology Branch, DTP, NCI, 2023) are IC50 and viability, T/C values, retold here.

Each structure is given as a SMILES string. “And” between values parts separate entries of the source, which are not always exact repeats. Identical values can stand only once.

The subject of the experiment is MPNST multicellular tumor spheroids, viability % test/control. Nature of the experiment: Anticancer human tumor MPNST cell line growth inhibition.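 As to all read-outs here: spheroids exposed to agents for seven days after three days of growth.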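 As to viability, T/C: luminescence signal used as surrogate for viable cell amount.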 The note with it: for viability, T/C: stronger effect = lower value. The text has this: Multicellular complex tumor spheroid response to DNA repair inhibitors in combination with DNA-damaging drugs
This study explores the anticancer activities of DNA-damaging drugs and inhibitors of DNA damage repair, both as single agents and in combinations. Complex tumor spheroids comprised of malignant cells, endothelial cells and mesenchymal stem cells served as an in vitro model for human solid tumors. This model system incorporates physiologically relevant features and patient-derived or established malignant cell lines with clinically relevant genetic alterations from many tumor types. Twenty-six patient-derived or established malignant cell lines were evaluated representing sarcoma, melanoma, small cell lung cancer (SCLC), non-small cell lung cancer (NSCLC), as well as bladder, ovarian and pancreatic cancers. The concentration ranges selected for each drug and investigational agent were based upon clinically achievable concentrations if the clinical Cmax of the agent was known.
Compounds. The drugs and compounds olaparib (NSC753686), talazoparib (NSC767125), berzosertib (NSC777718), elimusertib (NSC800525), nedisertib (NSC802822), VX-984 (NSC792969), AZD-1390 (NSC803789), temozolomide (NSC362856), topotecan (NSC609699), trabectedin (NSC813783), staurosporine (NSC755774), and gemcitabine (NSC613327) were obtained from the National Cancer Institute (NCI) Developmental Therapeutics Program Chemical Repository. The FDA-approved anticancer drug set is available from the Developmental Therapeutics Program at https://dtp.cancer.gov/organization/dscb/obtaining/available_plates.htm. […] The stock solutions were prepared in dimethyl sulfoxide (DMSO, Sigma-Aldrich, St. Louis, MO, cat. D2650) at 400-fold the tested concentration and stored at -70 degrees C. Prior to their use, the stock solutions were diluted in fresh medium and the final DMSO concentration in the assay was 0.25% (v/v). All drugs and investigational agents were tested over a range starting from a high concentration at or near the clinical Cmax and decreasing in half-log increments. If the clinical Cmax for an agent had not been determined, the highest concentration tested was 10 microM.
Cell Lines. The patient-derived cancer cell (PDC) lines: 156681-154-R-J1-PDC, 283228-195-R-J1-PDC, 287954-098-R-J1-PDC, 292921-168-R-J2-PDC, 349418-098-R-PDC, 425362-245-T-J1-PDC, 556581-035-R-J1-PDC, and BL0293-F563-PDC were received from the NCI Patient-Derived Models Repository (PDMR, https://pdmr.cancer.gov). The established cell lines HS-SY-2 (RRID:CVCL_8719), MPNST, and SYO-1 (RRID:CVCL_7146) were obtained from the Sloan Kettering Institute. The alveolar soft parts sarcoma cell line ASPS-1 (RRID:CVCL_S738) was established at the NCI and grown from internal seed stocks. The following established cell lines were purchased from the American Type Culture Collection (ATCC, Manassas, VA): G-401 (ATCC, cat. CRL-1441, RRID:CVCL_0270), SW982 (ATCC, cat. HTB-93, RRID:CVCL_1734), VA-ES-BJ (ATCC, cat. CRL-2138, RRID:CVCL_1785), NCI-H719 (ATCC, cat. CRL-5837, RRID:CVCL_1582), NCI-H196 (ATCC, cat. CRL-5823, RRID:CVCL_1509), NCI-H841 (ATCC, cat. CRL-5845, RRID:CVCL_1595), NCI-H1618 (ATCC, cat. CRL-5879, RRID:CVCL_1480), NCI-H1876 (ATCC, cat. CRL-5902, RRID:CVCL_1503), DMS 114 (ATCC, cat. CRL-2066; RRID:CVCL_1174), NCI-H211 (ATCC, cat. CRL-5824; RRID:CVCL_1529), and SW 1271 (ATCC, cat. CRL-2177, RRID:CVCL_1716). The small cell lung cancer cell line COR-L88 was purchased from Sigma-Aldrich (cat. 92031917-1VL, RRID:CVCL_1141). The non-small cell lung cancer cell lines NCI-H226 (RRID:CVCL_1544) and NCI-H322M (RRID:CVCL_1557) were established at the NCI and grown from internal seed stocks. Pooled donor human umbilical vein endothelial cells (HUVEC, Lonza, cat. CC-2519) and human mesenchymal stem cells (hMSC, Lonza, cat. PT-2501) were purchased from Lonza (Walkersville, MD).
Cell Culture. All cells were maintained in an incubator at 37 degrees C and 5% CO2 with 95% humidity. […]

Setting [1] is: curve of first compound, second compound 0.003 µM.

For orientation: IC50 means the concentration that inhibits the measured activity by half. In general, viability, T/C refers to the ratio of treated to control.

`CC1COCCN1c1cc(-c2ccnn2C)c2ccnc(-c3ccn[nH]3)c2n1` (stereo not drawn) + CC[C@@]1(O)C(=O)OCc2c1cc1n(c2=O)Cc2cc3c(CN(C)C)c(O)ccc3nc2-1: the IC50 under setting [1] amounted to 0.0562 µM; the IC50 (curve of first compound, second compound 0.00949 µM) was found to be 0.0318 µM; the IC50 (curve of first compound, second compound 0.03 µM) is less than 0.0316 µM; the IC50 (curve of first compound, second compound 0.0949 µM) is less than 0.0316 µM; the IC50 (curve of first compound, second compound 0.3 µM) was less than 0.0316 µM. The viability, T/C runs as follows: (second compound 0.003 µM, first compound 0.0316 µM) 51%; (second compound 0.003 µM, first compound 0.1 µM) 49.7%; (second compound 0.003 µM, first compound 0.316 µM) 39.3%; (second compound 0.003 µM, first compound 1 µM) 34.1%; (second compound 0.003 µM, first compound 3.16 µM) 25.9%; (second compound 0.003 µM, first compound 10 µM) 26.9%. The viability, T/C is, setting by setting: (second compound 0.00949 µM, first compound 0.0316 µM) 50.3%; (second compound 0.00949 µM, first compound 0.1 µM) 44%; (second compound 0.00949 µM, first compound 0.316 µM) 42.2%; (second compound 0.00949 µM, first compound 1 µM) 34.6%; (second compound 0.00949 µM, first compound 3.16 µM) 26.5%; (second compound 0.00949 µM, first compound 10 µM) 23.8%. Moreover, the viability, T/C is 48.7% (second compound 0.03 µM, first compound 0.0316 µM); 44.5% (second compound 0.03 µM, first compound 0.1 µM); 48.4% (second compound 0.03 µM, first compound 0.316 µM); 34.6% (second compound 0.03 µM, first compound 1 µM); 26.1% (second compound 0.03 µM, first compound 3.16 µM); 23.5% (second compound 0.03 µM, first compound 10 µM). Besides, the viability, T/C is 45.8% (second compound 0.0949 µM, first compound 0.0316 µM); 43.8% (second compound 0.0949 µM, first compound 0.1 µM); 41% (second compound 0.0949 µM, first compound 0.316 µM); 28.3% (second compound 0.0949 µM, first compound 1 µM); 26.9% (second compound 0.0949 µM, first compound 3.16 µM); 21.8% (second compound 0.0949 µM, first compound 10 µM). Also, the viability, T/C is, setting by setting: (second compound 0.3 µM, first compound 0.0316 µM) 41.1%; (second compound 0.3 µM, first compound 0.1 µM) 39.9%; (second compound 0.3 µM, first compound 0.316 µM) 34%; (second compound 0.3 µM, first compound 1 µM) 28.1%; (second compound 0.3 µM, first compound 3.16 µM) 21.2%; (second compound 0.3 µM, first compound 10 µM) 17.5%.

For the molecule `Cn1nnc2c(C(N)=O)ncn2c1=O`, the IC50 (compound alone, run of 11/07/2019) was > 100 µM and 30.7 µM.

For `O=C(c1cc(Cc2n[nH]c(=O)c3ccccc23)ccc1F)N1CCN(C(=O)C2CC2)CC1` + COc1cc2c(cc1O)CCNC21CSC2c3c(OC(C)=O)c(C)c4c(c3C(COC1=O)N1C(O)C3Cc5cc(C)c(OC)c(O)c5C(C21)N3C)OCO4, the IC50 (curve of first compound, second compound 30 pM) came to 5.28 µM; the 50% inhibitory concentration (IC50) (curve of first compound, second compound 94.9 pM) was determined as 1.62 µM; the IC50 (curve of first compound, second compound 0.0003 µM) stood at 0.153 µM; the IC50 (curve of first compound, second compound 0.000949 µM) was less than 0.0949 µM; the IC50 under setting [1] is less than 0.0949 µM. Also, the viability, T/C runs as follows: (second compound 30 pM, first compound 0.0949 µM) 91.7%; (second compound 30 pM, first compound 0.3 µM) 79.2%; (second compound 30 pM, first compound 0.949 µM) 57.2%; (second compound 30 pM, first compound 3 µM) 72.7%; (second compound 30 pM, first compound 9.49 µM) 38.3%; (second compound 30 pM, first compound 30 µM) 25.2%. In addition, the viability, T/C is 50.1% (second compound 94.9 pM, first compound 0.0949 µM); 57.1% (second compound 94.9 pM, first compound 0.3 µM); 70% (second compound 94.9 pM, first compound 0.949 µM); 39.7% (second compound 94.9 pM, first compound 3 µM); 29.7% (second compound 94.9 pM, first compound 9.49 µM); 25.1% (second compound 94.9 pM, first compound 30 µM). The viability, T/C was 53.5% (second compound 0.0003 µM, first compound 0.0949 µM); 44.5% (second compound 0.0003 µM, first compound 0.3 µM); 40.3% (second compound 0.0003 µM, first compound 0.949 µM); 34.5% (second compound 0.0003 µM, first compound 3 µM); 28.6% (second compound 0.0003 µM, first compound 9.49 µM); 25.3% (second compound 0.0003 µM, first compound 30 µM). For the same molecule, the viability, T/C is 26.8% (second compound 0.000949 µM, first compound 0.0949 µM); 29.3% (second compound 0.000949 µM, first compound 0.3 µM); 25.9% (second compound 0.000949 µM, first compound 0.949 µM); 24.8% (second compound 0.000949 µM, first compound 3 µM); 21.5% (second compound 0.000949 µM, first compound 9.49 µM); 14.8% (second compound 0.000949 µM, first compound 30 µM). For the same molecule, the viability, T/C reads like this: (second compound 0.003 µM, first compound 0.0949 µM) 7.65%; (second compound 0.003 µM, first compound 0.3 µM) 7.5%; (second compound 0.003 µM, first compound 0.949 µM) 5.51%; (second compound 0.003 µM, first compound 3 µM) 6.23%; (second compound 0.003 µM, first compound 9.49 µM) 3.48%; (second compound 0.003 µM, first compound 30 µM) 2.13%.

As for `CNCc1ccc(-c2cc(-c3nc(-c4ccc(S(=O)(=O)C(C)C)cc4)cnc3N)on2)cc1`, the viability, T/C (compound 0.00949 µM) was 119% and 97.4% and 89.4%; the viability, T/C (compound 0.03 µM) was 113% and 110% and 98.9%; the viability, T/C (compound 0.0949 µM) is 100% and 81.1% and 87.2%; the viability, T/C (compound 0.3 µM) was 74.1% and 69.5% and 55.1%; the viability, T/C (compound 0.949 µM) was 61.8% and 69.6% and 42.9%; the viability, T/C (compound 3 µM) was 65.9% and 69.1% and 43.7%. The IC50 (curve of compound) is > 3 µM and 0.495 µM.
